Values after ≈ are worked out from the molar mass of the structure shown.
Conditions: buffer; pH 7.4; 200.0 µM

| Structure (SMILES) | solubility kinetic [µg/mL] |
| --- | --- |
| CC1CCC(NCCNC(=O)c2ccco2)CC1 (centres undefined) | 26.7 (≈ 107 µM) |
| CN1CCCN(C(=O)CNC(=O)Cc2ccccc2)CC1 | > 43.4 |
| CCCC(=O)N=c1sc2c(OC)ccc(OC)c2n1C | < 0.3 |
| O=C(O)c1[nH]c2ccc([N+](=O)[O-])cc2c1-c1ccccc1 | > 42.3 |
| CCN(CC)Cc1oc(-c2ccccc2)cc1C(=O)O | 32.2 (≈ 118 µM) |
| CC(=O)c1cccc(NC(=O)Nc2ccc3c(c2)CCC3)c1 | 0.3 (≈ 1.02 µM) |
| CCS(=O)(=O)N1CCC(C(=O)Oc2ccccc2Cl)CC1 | 46 (≈ 139 µM) |
| CCC(=O)Nc1cccc(C(=O)N(Cc2ccccc2)Cc2ccccc2)c1 | 22.2 (≈ 59.6 µM) |
| CCOC(=O)N1CCc2c(sc3[nH]c(=S)[nH]c(=S)c23)C1 | 43.1 (≈ 132 µM) |
| COc1ccc(NC(=O)NC2CCCCCCC2)cc1OC | 2.7 (≈ 8.81 µM) |
| O=C(O)c1ccc2c(c1)C(=O)N(Cc1ccco1)C2=O | > 40.7 |
| O=C(Cc1cccc2ccccc12)Nc1ccccc1 | 1.9 (≈ 7.27 µM) |
| CCc1ccc(NC(=S)N(Cc2ccccc2)Cc2ccccn2)cc1 | 2.4 (≈ 6.64 µM) |
| O=C1CN(C(=O)c2cccc([N+](=O)[O-])c2)CC(=O)N1 | > 39.5 |
| CC1CCC(NC(=O)c2ccc(COc3ccccc3)o2)CC1 (centres undefined) | 1.7 (≈ 5.42 µM) |
| O=S(=O)(NCCC1CC1(Cl)Cl)c1ccc(Cl)cc1 (centres undefined) | 45.9 (≈ 140 µM) |
| CC1CN(C(=O)c2cc3cc(F)ccc3[nH]2)CC(C)O1 (centres undefined) | 32.2 (≈ 117 µM) |
| COc1ccccc1OCc1nc(-c2cccc([N+](=O)[O-])c2)no1 | 0.9 (≈ 2.75 µM) |
| O=C(COC(=O)Cc1ccc(Cl)cc1)NC1CCCC1 | > 44.4 |
| CN(C)S(=O)(=O)c1ccc(C(=O)OCC2CCCO2)cc1 (centres undefined) | > 47 |
| CC(C)CC(=O)Nc1ccc(-c2cn3cccnc3n2)cc1 | > 44.2 |
| CCOC(=O)/C=c1\s/c(=C(\C#N)C(N)=O)n(-c2ccccc2)c1=O | 8.4 (≈ 24.5 µM) |
| Cc1ccc2nc(Cn3cc(C(F)(F)F)ccc3=O)cc(=O)n2c1 | 47.4 (≈ 141 µM) |
| Cc1cc(C)c2oc(=O)cc(CN3CCC(C)CC3)c2c1 | 4.1 (≈ 14.4 µM) |

| Structure (SMILES) | solubility kinetic [µg/mL] |
| --- | --- |
| Nc1ccc(-c2c3ccccc3nc3ccccc23)cc1 | < 0.3 |
| O=C(NCc1cccnc1)/C(=C/c1ccccc1)NC(=O)c1ccccc1 | > 53.6 |
| Cc1cc(=O)oc(C)c1C(=O)NCCN(C)Cc1ccccc1 | > 47.2 |
| CCCN1C(=O)N(c2cccc(C)c2)C(C)(O)CC1(C)C (centres undefined) | > 43.6 |
| COC(=O)c1cc(NC(=O)c2c(C)noc2C)ccc1N1CCOCC1 | > 53.9 |
| Cc1ccnc(NC(=O)c2ccco2)n1 | > 30.5 |
| NC(=O)CC(NSc1ccccc1[N+](=O)[O-])C(=O)O (centres undefined) | 36.9 (≈ 129 µM) |
| CCCn1c(=S)[nH]c2sc3c(c2c1=O)CCCC3 | 1.4 (≈ 4.99 µM) |
| Cc1cc(C)c2c(=O)c(/C=C3\NC(=S)NC3=O)coc2c1 | 0.8 (≈ 2.66 µM) |
| NCCCNc1nc(N)c([N+](=O)[O-])c(NC2CCCCC2)n1 | > 46.4 |
| O=C(O)CSCC(=O)Nc1ccccn1 | > 33.9 |
| COc1ccc(/C=C/C(=O)O)cc1S(=O)(=O)N1CCCC1 | > 46.7 |
| OCCNC(=S)NCc1ccccc1 | 31.5 (≈ 150 µM) |
| CCC(C(=O)Nc1cc(Cl)c(OC)cc1OC)c1ccccc1 (centres undefined) | < 0.7 |
| Cn1c(/C=C/c2cccc([N+](=O)[O-])c2)c([N+](=O)[O-])c(=O)n(C)c1=O | 48.6 (≈ 146 µM) |
| CCCCN(CCO)c1ncnc2sc(-c3ccccc3)cc12 | < 0.2 |
| O=C(NC(=S)Nc1ccc(Cl)cc1Cl)C1CC1 | 0.8 (≈ 2.77 µM) |
| CCOC(=O)CNc1nc(Cl)nc(N2CCCCC2)n1 | 12.3 (≈ 41 µM) |
| CC(CC(=O)NCc1ccc(Cl)cc1)c1ccccc1 (centres undefined) | 39 (≈ 136 µM) |
| CC(=O)NCCc1ccc(C(=O)COC(=O)C2CCCCC2)cc1 | 33.4 (≈ 101 µM) |
| O=c1[nH]c(SCCOc2ccccc2F)nc2ccccc12 | 0.9 (≈ 2.84 µM) |
| Cc1cc(OCC(=O)NC2CC2)c2c(C)c(C)c(=O)oc2c1 | 2.5 (≈ 8.3 µM) |
| O=C(CS(=O)(=O)c1ccccc1)NCc1ccccc1 | > 43.4 |
| O=C(Nc1ccccc1)Nc1ccc(Oc2cccnc2)nc1 | 20.5 (≈ 66.9 µM) |

| Structure (SMILES) | solubility kinetic [µg/mL] |
| --- | --- |
| O=C(NC12CC3CC(CC(C3)C1)C2)c1cccc([N+](=O)[O-])c1 | 7.3 (≈ 24.3 µM) |
| O=[N+]([O-])c1cc([N+](=O)[O-])c2nonc2c1Nc1ccccc1O | > 47.6 |
| O=[N+]([O-])c1cccc(/C=N/n2cnnc2)c1 | > 32.6 |
| CC(=Nc1ccccc1O)c1sc2ccccc2c1O | < 0.6 |
| CC(=O)Nc1ccc(NC(=O)c2cc([N+](=O)[O-])cc([N+](=O)[O-])c2)cc1 | 7.9 (≈ 22.9 µM) |
| O=C(c1ccc(COCC(F)(F)F)o1)N1CCCC1 | 40.3 (≈ 145 µM) |
| C=CCN1C(=O)C2(OCCCO2)c2cc(Cl)ccc21 | 33.7 (≈ 120 µM) |
| COC(=O)c1ccc(C(=O)OC)c(NC(=O)CN2CCC(C)CC2)c1 | 0.6 (≈ 1.72 µM) |
| Cc1ccc(F)cc1NC(=O)N1CCN(C2c3ccccc3-c3ccccc32)CC1 | 4.9 (≈ 12.2 µM) |
| CCCn1cnc2cc(NCc3cccs3)ccc21 | > 40.7 |
| CN(C)CCCNC(=O)C(=O)NCC1CCCO1 (centres undefined) | > 38.6 |
| CC1CCCCC12NC(=O)N(CC(=O)NCc1ccco1)C2=O (centres undefined) | > 47.9 |
| O=C(OCC(=O)N1CCCCCC1)c1ccc(Cl)nc1 | > 44.5 |
| Cc1ccccc1-n1ccnc1SCC(=O)NC1CCCC1 | > 47.3 |
| NS(=O)(=O)c1ccc(CCNC(=O)NC2CCCCC2)cc1 | > 48.8 |
| CN1CCN2c3ncccc3Cc3ccccc3[C@@H]2C1 | 30.2 (≈ 114 µM) |
| Cc1cc(C)nc(NC(=O)c2ccc(C)c(C)c2)n1 | 35.2 (≈ 138 µM) |
| COc1cccc(CC2(CO)CCN(Cc3cn(C)nc3C)CC2)c1 | > 51.5 |
| CSc1ncccc1C(=O)Nc1ccc(OC(F)(F)F)cc1 | 3.8 (≈ 11.6 µM) |
| NC(=O)c1ccc(SCC(=O)NC2CCCCC2)c([N+](=O)[O-])c1 | 14.7 (≈ 43.6 µM) |
| NS(=O)(=O)c1ccc(CNC(=O)c2ccncc2)cc1 | > 43.7 |
| Cc1ccc(NC(=O)Nc2ncnc3nc[nH]c23)cc1 | 6.3 (≈ 23.5 µM) |
| Cc1cccc(NC(=O)c2cc(-c3ccccn3)nc3ccccc23)c1C | 3.5 (≈ 9.9 µM) |
| O=S(=O)(c1ccc(F)cc1)N1CCCCC1c1cccnc1 (centres undefined) | > 48.1 |

| Structure (SMILES) | solubility kinetic [µg/mL] |
| --- | --- |
| CCc1cccc(C)c1NC(=O)CSc1nc(C)c(C)o1 | > 45.7 |
| CN(C(=O)C(C)(C)C)C1c2c(ccc3ccccc23)OCC1CO (centres undefined) | 6.6 (≈ 20.2 µM) |
| O=C1CCC(C(=O)NCc2ccccc2)N1 (centres undefined) | 30.8 (≈ 141 µM) |
| Br.Clc1ccccc1CNCC1CCCO1 (centres undefined) | 41 |
| O=C(O)CC1(CC(=O)NCc2cccc(Cl)c2)CCCCC1 | > 48.6 |
| COc1ccc(CCNCc2ccccc2)cc1.O=C(O)C(=O)O | > 49.7 |
| Cc1c(C(=O)OCC(=O)N2CCCCC2C)oc2ccccc12 (centres undefined) | > 47.3 |
| COc1cc2c(cc1OC)C(C)N(C(=O)Nc1ccc(F)cc1)CC2 (centres undefined) | 18.4 (≈ 53.4 µM) |
| c1ccc2nc3c(nc2c1)CCCC3 | > 27.6 |
| CC(=O)Oc1ccc2occ(/C=N/c3cc(=O)[nH]c(=S)[nH]3)c(=O)c2c1 | > 53.6 |
| Nc1cc(S(=O)(=O)c2ccc(O)c(N)c2)ccc1O | > 42 |
| COc1ccccc1NC(=O)CN(Cc1ccco1)C(=O)c1ccc(N2CCCC2=O)cc1 | 64.9 (≈ 145 µM) |
| Cc1ccc(C(=O)NCC(=O)N2CCc3ccccc3C2)cc1C | > 48.4 |
| COCC(=O)N(Cc1nc2sc(C)c(C)c2c(=O)[nH]1)C1CCCCC1 | 47.4 (≈ 130 µM) |
| Cc1ccc(C)c(S(=O)(=O)NC(C)C(=O)NCc2ccccn2)c1 (centres undefined) | > 52.1 |
| O=C1/C(=C/c2ccncc2)N2CCC1CC2 | > 32.1 |
| CCOc1ccc(S(=O)(=O)N2CCN(C(=O)c3ccncc3)CC2)cc1 | > 56.3 |
| CCCC(=O)N(Cc1cc(=O)[nH]c2ccccc12)c1ccc(OC)cc1 | > 52.6 |
| COc1ccc(-c2c(C)nn(-c3ccccc3)c2NC(C)=O)cc1OC | > 52.7 |
| CCCCc1c(C)nc(N2CCCC2)[nH]c1=O | > 35.3 |
| N#Cc1c(-c2ccc3c(c2)OCO3)cc[nH]c1=O | 2.3 (≈ 9.57 µM) |
| COc1ccccc1N1CCN(CCc2ccccc2)CC1 | 37.5 (≈ 127 µM) |
| CCN(CC)CCNC(=O)/C(=N\O)c1ccccn1 | > 39.6 |
| N#C/C(=C\c1ccc[nH]1)C(=O)Nc1ccccc1Cl | < 0.2 |

| Structure (SMILES) | solubility kinetic [µg/mL] |
| --- | --- |
| COc1ccccc1CC(=O)Nc1ccc2c(c1)OC1(CCCC1)O2 | 35.7 (≈ 105 µM) |
| O=[N+]([O-])c1ccc(N2CCN(Cc3ccc4c(c3)OCO4)CC2)nc1 | 7 (≈ 20.4 µM) |
| Cc1cc(C(=O)Nc2ccccc2C(=O)O)c(C)o1 | > 38.9 |
| CC(NC(=O)Nc1ccc(Cl)cc1)c1ccc2c(c1)OCO2 (centres undefined) | 2.8 (≈ 8.78 µM) |
| CC(=O)c1cc(CN2CCN(CCC(C)C)C(CCO)C2)cs1 (centres undefined) | > 50.8 |
| CC(=O)Nc1ccc(NC(=S)NC(=O)/C=C/c2ccco2)cc1 | 32.3 (≈ 98.1 µM) |
| O=C(/C=C/c1ccco1)NCc1ccc2c(c1)OCO2 | > 40.7 |
| CCC1(C)Cc2ccccc2-c2nc(NCCCO)[nH]c(=O)c21 (centres undefined) | 44 (≈ 140 µM) |
| CC(C)(C)c1ccc(C(=O)N2CCN(Cc3ccccc3)CC2)cc1 | 28.5 (≈ 84.7 µM) |
| CCNC(=O)CCSc1nc(C)cc(C)n1 | > 35.9 |
| Cc1ccc(Nc2nc(-c3cccnc3)cs2)cc1C | 0.4 (≈ 1.42 µM) |
| COc1ccc2[nH]cc(CCNS(=O)(=O)c3ccc(C)cc3)c2c1 | 50.6 (≈ 147 µM) |
| CC(=O)c1c(C)[nH]c(C(=O)OCC(=O)Nc2cccnc2Cl)c1C | > 52.5 |
| CC(=O)c1c(C)[nH]c(C(=O)OCC(=O)Nc2ccc3c(c2)OCCO3)c1C | 3.8 (≈ 10.2 µM) |
| Clc1ccc(-c2nc(-c3ccncc3)no2)c(Cl)c1 | < 0.2 |
| CC(C)(C)Nc1nc(-c2ccc3c(c2)CCN3C(=O)C2CC2)cs1 | 5.4 (≈ 15.8 µM) |
| O=C(O)C1CCCN1C(=O)OCC1c2ccccc2-c2ccccc21 (centres undefined) | > 50.6 |
| COc1ccc(CCNC(=O)c2ccc(C)s2)cc1OC | > 45.8 |
| OC(C#CCCN1CCCCC1)(c1ccccc1)c1ccccc1 | 37.7 (≈ 118 µM) |
| O=C(COC(=O)CCc1nc2ccccc2c(=O)[nH]1)Nc1ccccc1 | > 52.7 |
| COc1ccc2oc(C(=O)OCC(=O)NC3CC3)c(C)c2c1 | 10.3 (≈ 34 µM) |
| O=C(O)c1ccc(S(=O)(=O)NCC2CCCCC2)cc1 | > 44.6 |
| CCOC(=O)N1CCN(C(=O)c2cc3cc(F)ccc3[nH]2)CC1 | 40.5 (≈ 127 µM) |

From PubChem BioAssay AID1996
